Measurements reported in article PMC4332533 (Neuropharmacology, 2014).

Key:
α3Y168Cβ2D190C receptor = α3Y168Cβ2D190C receptor (Rattus norvegicus, UniProt P04757+P12390, D216C/Y195C); assay: Macroscopic evoked currents, two-electrode voltage-clamp, Xenopus laevis oocytes; assay type: cell-based; conditions: ACh alone; Hill fit; naive oocytes
α3Y168Cβ2 receptor = α3Y168Cβ2 receptor (Rattus norvegicus, UniProt P04757+P12390, Y195C); assay: as above; assay type: cell-based; conditions: ACh alone; Hill fit
α3Y168Cβ2 receptor, sequence (P04757 26-499 Y195C): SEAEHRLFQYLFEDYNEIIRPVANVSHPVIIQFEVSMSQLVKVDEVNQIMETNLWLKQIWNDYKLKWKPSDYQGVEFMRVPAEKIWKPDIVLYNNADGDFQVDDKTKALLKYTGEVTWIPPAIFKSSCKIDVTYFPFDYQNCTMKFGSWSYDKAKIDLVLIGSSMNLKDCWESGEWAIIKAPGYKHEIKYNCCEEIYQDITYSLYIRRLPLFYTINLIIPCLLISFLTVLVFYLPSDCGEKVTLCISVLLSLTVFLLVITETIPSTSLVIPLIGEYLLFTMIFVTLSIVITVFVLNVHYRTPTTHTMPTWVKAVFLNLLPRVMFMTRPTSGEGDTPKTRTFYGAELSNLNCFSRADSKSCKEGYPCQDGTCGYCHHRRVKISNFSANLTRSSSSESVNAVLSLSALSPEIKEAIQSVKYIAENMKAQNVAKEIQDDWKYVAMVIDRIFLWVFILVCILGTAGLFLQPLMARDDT
α3Y168Cβ2 receptor, sequence (P12390 25-500): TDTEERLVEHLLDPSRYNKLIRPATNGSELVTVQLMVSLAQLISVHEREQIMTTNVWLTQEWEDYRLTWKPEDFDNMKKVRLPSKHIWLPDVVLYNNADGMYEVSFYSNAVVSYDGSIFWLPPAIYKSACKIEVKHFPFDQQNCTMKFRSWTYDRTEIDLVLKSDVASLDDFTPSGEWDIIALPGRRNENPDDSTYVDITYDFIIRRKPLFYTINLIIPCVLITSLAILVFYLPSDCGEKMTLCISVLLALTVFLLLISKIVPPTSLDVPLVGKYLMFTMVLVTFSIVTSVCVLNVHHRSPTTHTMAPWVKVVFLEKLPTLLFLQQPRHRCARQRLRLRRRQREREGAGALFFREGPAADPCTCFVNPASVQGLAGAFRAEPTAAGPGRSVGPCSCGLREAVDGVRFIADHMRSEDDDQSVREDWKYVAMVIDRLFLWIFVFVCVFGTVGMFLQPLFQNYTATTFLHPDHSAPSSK

α3β2D190C receptor = α3β2D190C receptor (Rattus norvegicus, UniProt P04757+P12390, D216C); assay: as above; assay type: cell-based; conditions: ACh alone; Hill fit
α3β2D190C receptor, sequence (P04757 26-499): as the sequence (P04757 26-499 Y195C) above, with C170Y counted along it
α3β2D190C receptor, sequence (P12390 25-500 D216C): as the sequence (P12390 25-500) above, with D192C counted along it

α3Y168Fβ2 receptor = α3Y168Fβ2 receptor (Rattus norvegicus, UniProt P04757+P12390, Y195F); assay: as above; assay type: cell-based; conditions: ACh alone; Hill fit
α3Y168Fβ2 receptor, sequence (P04757 26-499 Y195F): as the sequence (P04757 26-499 Y195C) above, with C170F counted along it
α3Y168Fβ2 receptor, sequence (P12390 25-500): as the sequence (P12390 25-500) above

α3β2D190Q receptor = α3β2D190Q receptor (Rattus norvegicus, UniProt P04757+P12390, D216Q); assay: as above; assay type: cell-based; conditions: ACh alone; Hill fit
α3β2D190Q receptor, sequence (P04757 26-499): as the sequence (P04757 26-499 Y195C) above, with C170Y counted along it
α3β2D190Q receptor, sequence (P12390 25-500 D216Q): as the sequence (P12390 25-500) above, with D192Q counted along it

α3Y168Fβ2D190Q receptor = α3Y168Fβ2D190Q receptor (Rattus norvegicus, UniProt P04757+P12390, D216Q/Y195F); assay: as above; assay type: cell-based; conditions: ACh alone
α3Y168Fβ2D190Q receptor, sequence (P04757 26-499 Y195F): as the sequence (P04757 26-499 Y195C) above, with C170F counted along it
α3Y168Fβ2D190Q receptor, sequence (P12390 25-500 D216Q): as the sequence (P12390 25-500) above, with D192Q counted along it

α3S125Yβ2W149A receptor = α3S125Yβ2W149A receptor (Rattus norvegicus, UniProt P04757+P12390, S152Y/W175A); assay: as above; assay type: cell-based; conditions: ACh alone
α3S125Yβ2W149A receptor, sequence (P04757 26-499 S152Y): as the sequence (P04757 26-499 Y195C) above, with S127Y, C170Y counted along it
α3S125Yβ2W149A receptor, sequence (P12390 25-500 W175A): as the sequence (P12390 25-500) above, with W151A counted along it

α3S125Cβ2 receptor = α3S125Cβ2 receptor (Rattus norvegicus, UniProt P04757+P12390, S152C); assay: as above; assay type: cell-based; conditions: ACh alone; Hill fit
α3S125Cβ2 receptor, sequence (P04757 26-499 S152C): as the sequence (P04757 26-499 Y195C) above, with S127C, C170Y counted along it
α3S125Cβ2 receptor, sequence (P12390 25-500, stated change not applied): as the sequence (P12390 25-500) above

α3β2Q39C receptor = α3β2Q39C receptor (Rattus norvegicus, UniProt P04757+P12390, Q65C); assay: as above; assay type: cell-based
α3β2Q39C receptor, sequence (P04757 26-499): as the sequence (P04757 26-499 Y195C) above, with C170Y counted along it
α3β2Q39C receptor, sequence (P12390 25-500 Q65C): as the sequence (P12390 25-500) above, with Q41C counted along it

α3Q37Cβ2 receptor = α3Q37Cβ2 receptor (Rattus norvegicus, UniProt P04757+P12390, Q64C); assay: as above; assay type: cell-based; conditions: ACh alone; Hill fit
α3Q37Cβ2 receptor, sequence (P04757 26-499 Q64C): as the sequence (P04757 26-499 Y195C) above, with Q39C, C170Y counted along it
α3Q37Cβ2 receptor, sequence (P12390 25-500): as the sequence (P12390 25-500) above

α3β2A127C receptor = α3β2A127C receptor (Rattus norvegicus, UniProt P04757+P12390, A153C); assay: as above; assay type: cell-based; conditions: ACh alone; Hill fit
α3β2A127C receptor, sequence (P04757 26-499): as the sequence (P04757 26-499 Y195C) above, with C170Y counted along it
α3β2A127C receptor, sequence (P12390 25-500 A153C): as the sequence (P12390 25-500) above, with A129C counted along it

α3Q37Cβ2A127C receptor = α3Q37Cβ2A127C receptor (Rattus norvegicus, UniProt P04757+P12390, A153C/Q64C); assay: as above; assay type: cell-based; conditions: ACh alone
α3Q37Cβ2A127C receptor, sequence (P04757 26-499 Q64C): as the sequence (P04757 26-499 Y195C) above, with Q39C, C170Y counted along it
α3Q37Cβ2A127C receptor, sequence (P12390 25-500 A153C): as the sequence (P12390 25-500) above, with A129C counted along it

α3β2A127Y receptor = α3β2A127Y receptor (Rattus norvegicus, UniProt P04757+P12390, A153Y); assay: as above; assay type: cell-based; conditions: ACh alone; Hill fit
α3β2A127Y receptor, sequence (P04757 26-499): as the sequence (P04757 26-499 Y195C) above, with C170Y counted along it
α3β2A127Y receptor, sequence (P12390 25-500 A153Y): as the sequence (P12390 25-500) above, with A129Y counted along it

α3S125Yβ2A127Y receptor = α3S125Yβ2A127Y receptor (Rattus norvegicus, UniProt P04757+P12390, A153Y/S152Y); assay: as above; assay type: cell-based; conditions: ACh alone
α3S125Yβ2A127Y receptor, sequence (P04757 26-499 S152Y): as the sequence (P04757 26-499 Y195C) above, with S127Y, C170Y counted along it
α3S125Yβ2A127Y receptor, sequence (P12390 25-500 A153Y): as the sequence (P12390 25-500) above, with A129Y counted along it

α3E173Cβ2 receptor = α3E173Cβ2 receptor (Rattus norvegicus, UniProt P04757+P12390, E200C); assay: as above; assay type: cell-based; conditions: ACh alone; Hill fit
α3E173Cβ2 receptor, sequence (P04757 26-499 E200C): as the sequence (P04757 26-499 Y195C) above, with C170Y, E175C counted along it
α3E173Cβ2 receptor, sequence (P12390 25-500): as the sequence (P12390 25-500) above

α3β2R46C receptor = α3β2R46C receptor (Rattus norvegicus, UniProt P04757+P12390, R72C); assay: as above; assay type: cell-based; conditions: ACh alone; Hill fit
α3β2R46C receptor, sequence (P04757 26-499): as the sequence (P04757 26-499 Y195C) above, with C170Y counted along it
α3β2R46C receptor, sequence (P12390 25-500 R72C): as the sequence (P12390 25-500) above, with R48C counted along it

α3E173Cβ2R46C receptor = α3E173Cβ2R46C receptor (Rattus norvegicus, UniProt P04757+P12390, E200C/R46C); assay: as above; assay type: cell-based
α3E173Cβ2R46C receptor, sequence (P04757 26-499 E200C): as the sequence (P04757 26-499 Y195C) above, with C170Y, E175C counted along it
α3E173Cβ2R46C receptor, sequence (P12390 25-500 R46C): as the sequence (P12390 25-500) above, with R22C counted along it

α3E173Aβ2 receptor = α3E173Aβ2 receptor (Rattus norvegicus, UniProt P04757+P12390, E200A); assay: as above; assay type: cell-based; conditions: ACh alone; Hill fit
α3E173Aβ2 receptor, sequence (P04757 26-499 E200A): as the sequence (P04757 26-499 Y195C) above, with C170Y, E175A counted along it
α3E173Aβ2 receptor, sequence (P12390 25-500): as the sequence (P12390 25-500) above

α3β2R46V receptor = α3β2R46V receptor (Rattus norvegicus, UniProt P04757+P12390, R72V); assay: as above; assay type: cell-based; conditions: ACh alone; Hill fit
α3β2R46V receptor, sequence (P04757 26-499): as the sequence (P04757 26-499 Y195C) above, with C170Y counted along it
α3β2R46V receptor, sequence (P12390 25-500 R72V): as the sequence (P12390 25-500) above, with R48V counted along it

α3E173Aβ2R46V receptor = α3E173Aβ2R46V receptor (Rattus norvegicus, UniProt P04757+P12390, E200A/R46V); assay: as above; assay type: cell-based
α3E173Aβ2R46V receptor, sequence (P04757 26-499 E200A): as the sequence (P04757 26-499 Y195C) above, with C170Y, E175A counted along it
α3E173Aβ2R46V receptor, sequence (P12390 25-500 R46V): as the sequence (P12390 25-500) above, with R22V counted along it

α3β2W149A receptor = conditions: read-out: EC50 (ACh Activation); ACh alone; Hill fit; cited from earlier work
α3S125Cβ2Q39C receptor = α3S125Cβ2Q39C receptor (Rattus norvegicus, UniProt P04757+P12390, Q65C/S152C); assay: Macroscopic evoked currents, two-electrode voltage-clamp, Xenopus laevis oocytes
α3S125Cβ2Q39C receptor, sequence (P04757 26-499 S152C): as the sequence (P04757 26-499 Y195C) above, with S127C, C170Y counted along it
α3S125Cβ2Q39C receptor, sequence (P12390 25-500 Q65C): as the sequence (P12390 25-500) above, with Q41C counted along it

[1] = thermodynamic cycle Ω from EC50s, ACh alone, location M4

α3Y168Cβ2D190C receptor, sequence (P04757 26-499 Y195C): as the sequence (P04757 26-499 Y195C) above
α3Y168Cβ2D190C receptor, sequence (P12390 25-500 D216C): as the sequence (P12390 25-500) above, with D192C counted along it

SMILES: CC(=O)OCC[N+](C)(C)C [ACh, acetylcholine]
- nH (ACh Activation) (α3Y168Cβ2D190C receptor): 0.68 ± 0.08 [10]
- nH (ACh Activation) (α3Y168Cβ2 receptor): 0.70 ± 0.11 [11]
- nH (ACh Activation) (α3β2D190C receptor): 1.05 ± 0.14 [9]
- nH (ACh Activation) (α3Y168Fβ2 receptor): 0.61 ± 0.04 [12]
- nH (ACh Activation) (α3β2D190Q receptor): 1.00 ± 0.15 [8]
- nH (ACh Activation) (α3Y168Fβ2D190Q receptor; Hill fit): 0.83 ± 0.09 [11]
- Ω(ACh) (α3Y168Fβ2D190Q receptor; thermodynamic cycle Ω from EC50s, location M1): 18
- nH (ACh Activation) (α3S125Yβ2W149A receptor; Hill fit): 0.61 ± 0.10 [6]
- Ω(ACh) (α3S125Yβ2W149A receptor; thermodynamic cycle Ω from EC50s, location A2): 0.98
- nH (ACh Activation) (α3S125Cβ2 receptor): 0.64 ± 0.13 [5–7]
- nH (ACh Activation) (α3β2Q39C receptor; ACh alone, Hill fit): 0.78 ± 0.12 [4]
- increase in EC50 for ACh activation vs wild type (α3β2Q39C receptor; from Table 2): 2 fold
- nH (ACh Activation) (α3Q37Cβ2 receptor): 1.67 ± 0.44 [4]
- nH (ACh Activation) (α3β2A127C receptor): 2.09 ± 0.34 [4]
- nH (ACh Activation) (α3Q37Cβ2A127C receptor; Hill fit, naive oocytes): 0.97 ± 0.13 [6]
- Ω(ACh) (α3Q37Cβ2A127C receptor; thermodynamic cycle Ω from EC50s, location M3): 0.64
- nH (ACh Activation) (α3β2A127Y receptor): 1.46 ± 0.20 [5]
- nH (ACh Activation) (α3S125Yβ2A127Y receptor; Hill fit): 1.06 ± 0.19 [3]
- Ω(ACh) (α3S125Yβ2A127Y receptor; thermodynamic cycle Ω from EC50s, location A2/M3): 3.2
- nH (ACh Activation) (α3E173Cβ2 receptor): 1.16 ± 0.12 [7]
- nH (ACh Activation) (α3β2R46C receptor): 0.88 ± 0.13 [5]
- Iaverage evoked by ACh (α3E173Cβ2R46C receptor; 2 mM ACh, n = 8, one successful expression attempt): 60 ± 10 nA
- nH (ACh Activation) (α3E173Cβ2R46C receptor; ACh alone, Hill fit): 0.85 ± 0.10 [5–6]
- Ω(ACh) (α3E173Cβ2R46C receptor; [1]): 2.4
- nH (ACh Activation) (α3E173Aβ2 receptor): 1.77 ± 0.26 [3–6]
- nH (ACh Activation) (α3β2R46V receptor): 0.92 ± 0.14 [5–7]
- Iaverage evoked by ACh (α3E173Aβ2R46V receptor; 800 µM ACh, n = 8): 990 ± 130 nA
- nH (ACh Activation) (α3E173Aβ2R46V receptor; ACh alone, Hill fit): 0.82 ± 0.06 [7–8]
- Ω(ACh) (α3E173Aβ2R46V receptor; [1]): 15
- EC50 (α3β2W149A receptor): 40 ± 6 µM
- nH (ACh Activation) (α3S125Cβ2Q39C receptor; ACh alone, Hill fit, naive oocytes): 0.66 ± 0.09 [3–7]
- decrease in EC50 for ACh activation vs wild type (α3S125Cβ2Q39C receptor; from Table 2): 60 fold
- Ω(ACh) (α3S125Cβ2Q39C receptor; thermodynamic cycle Ω from EC50s, ACh alone, location A2): 0.16
